Series [1] concerns viral polymerase (viral cores). Kind of series: Elongation (priming of transcription) of capped RNA fragments by viral cores with NTPs. Particulars: with NTPs (ATP, CTP, GTP). It counts as biochemical, Influenza A/PR/8 virus (H1N1).
For series [2], the system named is influenza virus endonuclease (viral polymerase in viral cores). Kind of series: Viral endonuclease cleavage reaction of capped RNA substrates with viral cores. It counts as biochemical, Influenza A/PR/8 virus (H1N1). The settings on record: for dephosphorylation of the 3' phosphate by the viral polymerase (in words): 3'-phosphate terminated fragments with viral cores; for endonucleolytic cleavage by viral cores (in words): absence of nucleotide triphosphates.

The next series has as its system viral cores. The settings on record: glycerol gradients, reference 3; cited from earlier work.

Entries after “also recorded” stand apart in the source; their conditions may differ. {m7Gppp} = cap: 7-methylguanosine joined 5'-5' by triphosphate; m = 2'-O-methyl; r = 2'-OH (RNA); {P} = phosphate

Regarding “m^7 GpppGmAAUACUCAAGp (GAAUACUCAAG; sugars from the 5' end m1 r10, 5' {m7Gppp}, 3' {P}, backbone not given here) [ID; NO]”, the “elongation / priming of transcription by viral cores (in words)” value (from here on “elongation / priming of transcription”) in series [1] is given as “little elongation”; in series [1] (listed as G11-p) it was “unable to efficiently prime transcription”. Moreover, the “dephosphorylation of the 3' phosphate by the viral polymerase (in words)” value (“dephosphorylation of the 3' phosphate” for short) in series [2] is “essentially no cleavage of the 3' phosphate; also recorded: little if any dephosphorylation”; in series [2] (listed as G11-p), “not converted to the G11-OH fragment”. Moreover, the “endonucleolytic cleavage by viral cores (in words)” value (“endonucleolytic cleavage” below) in series [2] was “A minor amount of G11-P fragment was cleaved to the A9-OH fragment”.
Regarding “m^7 GpppGmAAUACUCAAGC (GAAUACUCAAGC; sugars from the 5' end m1 r11, 5' {m7Gppp}, backbone not given here) [ID; NO]”, the “elongation / priming of transcription” value in series [1] was “appeared to prime transcription without cleavage”. Also, the “endonucleolytic cleavage” value in series [2] was “a minor amount of secondary cleavage to a putative A9-OH fragment occurred”.
m^7 GpppGmAAUACUCAAGGp: the “endonucleolytic cleavage” value in series [2] is given as “cleavage to an 11-base primer resulted”.
As to “m^7 GpppGmAAUACUCAA (GAAUACUCAA; sugars from the 5' end m1 r9, 5' {m7Gppp}, backbone not given here) [ID; NO]”, the “elongation / priming of transcription” value in series [1] is given as “directly primed elongation”.
On to m^7 GpppGmUp, for which, in the series on viral cores, the “co-sedimentation with viral cores” value is on record as “did not”.
Turning to “m^7 GpppGmAAUACUCAAp (GAAUACUCAA; sugars from the 5' end m1 r9, 5' {m7Gppp}, 3' {P}, backbone not given here) [ID; NO]”, the “elongation / priming of transcription” value in series [1] is “little elongation”. Further, in series [2], the “dephosphorylation of the 3' phosphate” value is given as “essentially no cleavage of the 3' phosphate; also recorded: little if any dephosphorylation”.
Turning to m^7 GpppGmAAUACUC, the “elongation / priming of transcription” value in series [1] is reported as “nor were they able to prime transcription”. For the same substance, the “endonucleolytic cleavage” value in series [2] was “neither cleaved”.
Consider “m^7 GpppGmAAUACUCAAGCp (GAAUACUCAAGC; sugars from the 5' end m1 r11, 5' {m7Gppp}, 3' {P}, backbone not given here) [ID; NO]”, for which the “elongation / priming of transcription” value in series [1] is “A small amount of elongation was observed”. In addition, in series [2], the “dephosphorylation of the 3' phosphate” value is given as “little if any dephosphorylation” and the “endonucleolytic cleavage” value was “little cleavage of the C12-P fragment to the G11-OH fragment occurred”.
For the substance m^7 GpppGmUUUUUAp, the “co-sedimentation with viral cores” value in the series on viral cores is listed as “co-sedimented efficiently”.
As for m^7 GpppGmAAUACU, the “elongation / priming of transcription” value in series [1] is given as “nor were they able to prime transcription”. For the same substance, the “endonucleolytic cleavage” value in series [2] is reported as “neither cleaved”.
Regarding “m^7 GpppGmAAUACUCAAG-OH (GAAUACUCAAG; sugars from the 5' end m1 r10, 5' {m7Gppp}, backbone not given here) [ID; NO; 5, capped 11-nucleotide cleavage product]”, the “elongation / priming of transcription” value in series [1] (listed as G11-OH) is “could function as a primer for viral transcription; also recorded: able to prime with an efficiency similar to that obtained with the full-length substrate”. Also, the “endonucleolytic cleavage” value in series [2] is “did not result in further cleavage”.
For m^7 GpppGm, the “co-sedimentation with viral cores” value in the series with viral cores is “did not”.
For the substance “m^7 GpppGmAAUACUCAAGCUp (GAAUACUCAAGCU; sugars from the 5' end m1 r12, 5' {m7Gppp}, 3' {P}, backbone not given here) [ID; NO]”, in series [1], the “elongation / priming of transcription” value was “normal elongation is observed”. The “endonucleolytic cleavage” value in series [2] is “cleaved in the absence of ribonucleotides to an 11 base primer”.
On to m^7 GpppGmAAUACUCA, for which the “elongation / priming of transcription” value in series [1] (listed as A9-OH) was “inefficiently elongated; also recorded: appeared to promote an abortive elongation product or primed transcription very inefficiently”.

Values taken from patent publication US5837852A, “Capped nucleic acid oligomers that inhibit cap-dependent transcription of the influenza virus endonuclease” (priority 1993, dated 1998).
